Literature values, collected in patent US20140363396A1, “ONCE DAILY TREATMENT OF HEPATITIS C WITH RIBAVIRIN AND TARIBAVIRIN” (priority 2012, published 2014).
Each block holds one molecule with its values, some of them ahead of it.

Legend:
[1] = in vivo
[2] = biological target: T1, HCV NS3/4A protease (Hepatitis C virus genotype 1a, UniProt P27958); details: R-diastereomer compared with telaprevir
T1 construct: NS3 consists of an N-terminal serine protease domain and a C-terminal helicase domain
T1 sequence (P27958 1027-1657 limits assumed): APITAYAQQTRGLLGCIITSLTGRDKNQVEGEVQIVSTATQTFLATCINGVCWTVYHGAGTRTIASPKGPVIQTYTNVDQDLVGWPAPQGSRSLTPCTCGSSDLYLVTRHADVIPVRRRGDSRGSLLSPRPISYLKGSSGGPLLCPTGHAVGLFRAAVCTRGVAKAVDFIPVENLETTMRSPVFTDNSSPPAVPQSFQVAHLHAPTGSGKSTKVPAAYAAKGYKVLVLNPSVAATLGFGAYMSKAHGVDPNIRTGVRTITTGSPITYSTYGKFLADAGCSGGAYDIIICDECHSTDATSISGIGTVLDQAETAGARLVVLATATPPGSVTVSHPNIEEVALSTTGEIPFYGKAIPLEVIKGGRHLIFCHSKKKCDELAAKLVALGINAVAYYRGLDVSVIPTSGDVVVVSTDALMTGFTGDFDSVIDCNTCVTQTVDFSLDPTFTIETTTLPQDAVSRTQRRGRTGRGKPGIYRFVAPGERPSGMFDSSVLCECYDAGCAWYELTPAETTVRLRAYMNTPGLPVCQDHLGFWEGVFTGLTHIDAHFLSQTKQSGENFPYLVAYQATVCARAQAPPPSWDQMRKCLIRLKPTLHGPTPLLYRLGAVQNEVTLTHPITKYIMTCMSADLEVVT
T1 sequence (P27958 1658-1711 partner limits assumed): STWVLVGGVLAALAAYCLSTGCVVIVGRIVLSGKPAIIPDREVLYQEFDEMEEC

[3] = compared with ribavirin
[4] = in vivo; remark: listed apart in the source

Structure (SMILES): CCC[C@@H](NC(=O)[C@@H]1[C@H]2CCC[C@H]2CN1C(=O)[C@@H](NC(=O)[C@@H](NC(=O)c1cnccn1)C1CCCCC1)C(C)(C)C)C(=O)C(=O)NC1CC1 [VRT-127394]
- metabolite of telaprevir in plasma [1]: major metabolite in plasma
- fold less potent than telaprevir [2]: approximately 30 fold

Structure (SMILES): NC(=O)c1ncn([C@H]2O[C@@H](CO)[C@H](O)[C@@H]2O)n1 [Levovirin, 1-β-L-ribofuranosyl-1H-1,2,4-triazole-3-carboxamide]
- toxicity [3]: less toxic

Results, then the molecule that gave them:

- solubility in methanol, ethanol and isopropanol (methanol, ethanol and isopropanol): freely soluble
- solubility in water: slightly soluble
Structure (SMILES): CC(C)(C)NC(=O)N[C@H](C(=O)N1C[C@H]2[C@@H]([C@H]1C(=O)NC(CC1CCC1)C(=O)C(N)=O)C2(C)C)C(C)(C)C (stereo partly drawn) [Boceprevir, (1R,5S)—N-[3-Amino-1-(cyclobutylmethyl)-2,3-dioxopropyl]-3-[2(S)-[[[(1,1-dimethylethyl)amino]carbonyl]amino]-3,3-dimethyl-1-oxobutyl]-6,6-dimethyl-3-azabicyclo[3.1.0]hexan-2(S)-carboxamide]

- solubility in anhydrous alcohol (anhydrous alcohol): slightly soluble
- solubility in water: freely soluble
Structure (SMILES): NC(=O)c1ncn([C@@H]2O[C@H](CO)[C@@H](O)[C@H]2O)n1 [Ribavirin, 1-β-D-ribofuranosyl-1H-1,2,4-triazole-3-carboxamide]

- anemia [4]: significantly less anemia
Structure (SMILES): N=C(N)c1ncn([C@@H]2O[C@H](CO)[C@@H](O)[C@H]2O)n1 [taribavirin, 1-β-D-ribofuranosyl-1H-1,2,4-triazole-3-carboxamidine]
